Laboratory results published in the NIST ThermoML archive (doi:10.1016/j.fluid.2014.10.004).
± gives the expanded uncertainty stated by the source.

How the values were obtained:
[1] = 101.3 kPa, Liquid, Sing-around technique in a fixed-path interferometer
[2] = refractive index (Na D-line) (dimensionless); details: 101.33 kPa, Liquid, Standard Abbe refractometry
[3] = xn = mol fraction of the nth substance listed; details: 101.3 kPa, Liquid, Sing-around technique in a fixed-path interferometer
[4] = refractive index (Na D-line) (dimensionless); xn = mol fraction of the nth substance listed; details: 101.3 kPa, Liquid, Standard Abbe refractometry

CC(Cl)(Cl)Cl [1,1,1-trichloroethane]
Details | refractive index, 298.15 K | refractive index, 308.15 K | refractive index, 318.15 K | speed of sound, 298.15 K [m/s] | speed of sound, 308.15 K [m/s] | speed of sound, 318.15 K [m/s]
[1] | – | – | – | 962.94 ± 1.5 | 928.68 ± 1.5 | 894.71 ± 1.5
[2] | 1.43492 ± 0.00037 | 1.42908 ± 0.00037 | 1.42311 ± 0.00037 | – | – | –

ClC(Cl)C(Cl)Cl [1,1,2,2-tetrachloroethane]
Details | refractive index, 298.15 K | refractive index, 308.15 K | refractive index, 318.15 K | speed of sound, 298.15 K [m/s] | speed of sound, 308.15 K [m/s] | speed of sound, 318.15 K [m/s]
[1] | – | – | – | 1150.6 ± 2.3 | 1118.7 ± 2.3 | 1087 ± 2.3
[2] | 1.49174 ± 0.00051 | 1.48654 ± 0.00051 | 1.48137 ± 0.00051 | – | – | –

ClCCCl [1,2-dichloroethane]
Details | refractive index, 298.15 K | refractive index, 308.15 K | refractive index, 318.15 K | speed of sound, 298.15 K [m/s] | speed of sound, 308.15 K [m/s] | speed of sound, 318.15 K [m/s]
[1] | – | – | – | 1194.4 ± 1.2 | 1156.1 ± 1.2 | 1117.8 ± 1.1
[2] | 1.44206 ± 0.00031 | 1.43661 ± 0.00031 | 1.43109 ± 0.00031 | – | – | –

ClCCCCl [1,3-dichloropropane]
Details | refractive index, 298.15 K | refractive index, 308.15 K | refractive index, 318.15 K | speed of sound, 298.15 K [m/s] | speed of sound, 308.15 K [m/s] | speed of sound, 318.15 K [m/s]
[1] | – | – | – | 1236.5 ± 1.2 | 1199.7 ± 1.2 | 1163.2 ± 1.2
[2] | 1.44617 ± 0.00032 | 1.44123 ± 0.00032 | 1.43614 ± 0.00032 | – | – | –

C[N+](=O)[O-] [nitromethane] + ClC(Cl)Cl
Details | refractive index, 298.15 K | refractive index, 308.15 K | refractive index, 318.15 K | speed of sound, 298.15 K [m/s] | speed of sound, 308.15 K [m/s] | speed of sound, 318.15 K [m/s]
[3], x2 = 0 | – | – | – | 1321.3 ± 1.8 | 1281.8 ± 1.8 | 1242.4 ± 1.7
[3], x2 = 0.1197 | – | – | – | 1253.7 ± 1.7 | 1215.5 ± 1.7 | 1177.5 ± 1.7
[3], x2 = 0.1772 | – | – | – | 1225 ± 1.7 | 1187.5 ± 1.7 | 1150.1 ± 1.7
[3], x2 = 0.3007 | – | – | – | 1171.2 ± 1.7 | 1134.6 ± 1.7 | 1098.1 ± 1.7
[3], x2 = 0.4009 | – | – | – | 1133.6 ± 1.6 | 1097.8 ± 1.6 | 1062 ± 1.6
[3], x2 = 0.5 | – | – | – | 1101.3 ± 1.6 | 1065.9 ± 1.6 | 1030.7 ± 1.6
[3], x2 = 0.5978 | – | – | – | 1072.5 ± 1.6 | 1037.7 ± 1.6 | 1002.9 ± 1.6
[3], x2 = 0.7194 | – | – | – | 1041.5 ± 1.6 | 1007.1 ± 1.6 | 972.74 ± 1.6
[3], x2 = 0.8607 | – | – | – | 1010.4 ± 1.5 | 976.31 ± 1.5 | 942.3 ± 1.5
[3], x2 = 0.9562 | – | – | – | 993.45 ± 1.5 | 959.49 ± 1.5 | 925.65 ± 1.5
[4], x2 = 0 | 1.37951 ± 0.0004 | 1.37501 ± 0.0004 | 1.37016 ± 0.0004 | – | – | –
[4], x2 = 0.1197 | 1.39001 ± 0.0004 | 1.38474 ± 0.0004 | 1.37896 ± 0.0004 | – | – | –
[4], x2 = 0.1772 | 1.39474 ± 0.0004 | 1.38937 ± 0.0004 | 1.3835 ± 0.0004 | – | – | –
[4], x2 = 0.3007 | 1.40415 ± 0.00039 | 1.39828 ± 0.00039 | 1.39227 ± 0.00039 | – | – | –
[4], x2 = 0.4009 | 1.41107 ± 0.00039 | 1.40509 ± 0.00039 | 1.39897 ± 0.00039 | – | – | –
[4], x2 = 0.5 | 1.41742 ± 0.00039 | 1.41126 ± 0.00039 | 1.40531 ± 0.00039 | – | – | –
[4], x2 = 0.5978 | 1.42317 ± 0.00038 | 1.41698 ± 0.00038 | 1.41097 ± 0.00038 | – | – | –
[4], x2 = 0.7194 | 1.42971 ± 0.00038 | 1.42362 ± 0.00038 | 1.41741 ± 0.00038 | – | – | –
[4], x2 = 0.8607 | 1.4364 ± 0.00037 | 1.43035 ± 0.00037 | 1.42424 ± 0.00037 | – | – | –
[4], x2 = 0.9562 | 1.44032 ± 0.00037 | 1.43408 ± 0.00037 | 1.42786 ± 0.00037 | – | – | –

C[N+](=O)[O-] [nitromethane] + ClCCCCCl
x2 = 0
Details | refractive index, 298.15 K | refractive index, 308.15 K | refractive index, 318.15 K | speed of sound, 298.15 K [m/s] | speed of sound, 308.15 K [m/s] | speed of sound, 318.15 K [m/s]
[3] | – | – | – | 1321.5 ± 1.8 | 1281.9 ± 1.8 | 1242.5 ± 1.7
[4] | 1.37955 ± 0.0004 | 1.37482 ± 0.0004 | 1.37001 ± 0.0004 | – | – | –

C[N+](=O)[O-] [nitromethane] + ClCCCCl
x2 = 0
Details | refractive index, 298.15 K | refractive index, 308.15 K | refractive index, 318.15 K | speed of sound, 298.15 K [m/s] | speed of sound, 308.15 K [m/s] | speed of sound, 318.15 K [m/s]
[3] | – | – | – | 1321.2 ± 1.8 | 1281.8 ± 1.8 | 1242.5 ± 1.7
[4] | 1.37948 ± 0.0004 | 1.3748 ± 0.0004 | 1.37007 ± 0.0004 | – | – | –

C[N+](=O)[O-] [nitromethane] + ClCCCl
Details | refractive index, 298.15 K | refractive index, 308.15 K | refractive index, 318.15 K | speed of sound, 298.15 K [m/s] | speed of sound, 308.15 K [m/s] | speed of sound, 318.15 K [m/s]
[3], x2 = 0 | – | – | – | 1321.2 ± 1.8 | 1281.8 ± 1.8 | 1242.5 ± 1.7
[3], x2 = 0.0878 | – | – | – | 1298.2 ± 1.7 | 1259 ± 1.7 | 1220.1 ± 1.7
[3], x2 = 0.1939 | – | – | – | 1279 ± 1.6 | 1240.3 ± 1.6 | 1201.6 ± 1.6
[3], x2 = 0.2938 | – | – | – | 1264 ± 1.5 | 1225.5 ± 1.5 | 1187 ± 1.5
[3], x2 = 0.3998 | – | – | – | 1246.1 ± 1.4 | 1207.7 ± 1.4 | 1169.4 ± 1.4
[3], x2 = 0.5028 | – | – | – | 1236 ± 1.4 | 1197.7 ± 1.4 | 1159.5 ± 1.4
[3], x2 = 0.6154 | – | – | – | 1229 ± 1.3 | 1190.8 ± 1.3 | 1152.5 ± 1.3
[3], x2 = 0.7207 | – | – | – | 1218.7 ± 1.3 | 1180.5 ± 1.3 | 1142.2 ± 1.2
[3], x2 = 0.8326 | – | – | – | 1207.6 ± 1.2 | 1169.3 ± 1.2 | 1131.1 ± 1.2
[3], x2 = 0.9404 | – | – | – | 1201.6 ± 1.2 | 1163.3 ± 1.2 | 1125 ± 1.2
[4], x2 = 0 | 1.37952 ± 0.0004 | 1.37482 ± 0.0004 | 1.37009 ± 0.0004 | – | – | –
[4], x2 = 0.1132 | 1.38846 ± 0.00039 | 1.38351 ± 0.00039 | 1.37845 ± 0.00039 | – | – | –
[4], x2 = 0.2235 | 1.39669 ± 0.00038 | 1.39148 ± 0.00038 | 1.38609 ± 0.00038 | – | – | –
[4], x2 = 0.3249 | 1.40379 ± 0.00036 | 1.39839 ± 0.00036 | 1.39284 ± 0.00036 | – | – | –
[4], x2 = 0.4672 | 1.41318 ± 0.00035 | 1.40777 ± 0.00035 | 1.40213 ± 0.00035 | – | – | –
[4], x2 = 0.5586 | 1.4188 ± 0.00034 | 1.41343 ± 0.00034 | 1.40781 ± 0.00034 | – | – | –
[4], x2 = 0.6264 | 1.42279 ± 0.00033 | 1.41742 ± 0.00033 | 1.41184 ± 0.00033 | – | – | –
[4], x2 = 0.7349 | 1.42888 ± 0.00033 | 1.42345 ± 0.00033 | 1.41797 ± 0.00033 | – | – | –
[4], x2 = 0.857 | 1.43522 ± 0.00032 | 1.42981 ± 0.00032 | 1.42424 ± 0.00032 | – | – | –
[4], x2 = 0.923 | 1.43844 ± 0.00032 | 1.43304 ± 0.00032 | 1.42748 ± 0.00032 | – | – | –

ClC(Cl)Cl [trichloromethane] + C[N+](=O)[O-]
x1 = 1
Details | refractive index, 298.15 K | refractive index, 308.15 K | refractive index, 318.15 K | speed of sound, 298.15 K [m/s] | speed of sound, 308.15 K [m/s] | speed of sound, 318.15 K [m/s]
[3] | – | – | – | 984.42 ± 1.5 | 950.45 ± 1.5 | 916.63 ± 1.5
[4] | 1.44209 ± 0.00037 | 1.43598 ± 0.00037 | 1.42986 ± 0.00037 | – | – | –
